“And” between values parts separate entries of the source, which are not always exact repeats. Equal values may be shown once. “Also recorded” adds a separate entry of the source.
Tests used:
[1] = tested on: Lung cancer cells harboring EGFR mutations vs cells with wild-type receptor; assay: Apoptosis / cell viability (MTT) assay with increasing drug concentrations; format: cell-based, human; details: compared with cells expressing only wild-type EGFR
Description: 10,000 cells were seeded into individual wells of a 96-well plate. […] After 96 hours, the viability of cells was determined using the MTT assay. For caspase immunostaining, 10,000 cells were seeded onto 10 mm coverslips. The next day they were transfected with siRNA (see previous section for details). After 72 hours the cells were fixed in 4% paraformaldehyde at room temperature for 10 min. They were subsequently permeabilized for 5 min in 0.5% Triton X-100 and blocked for 1 hr in 5% normal goat serum (NGS). […] The next day the coverslips were washed 3 times in PBS and incubated for 1 hour with secondary antibody (goat anti-rabbit Texas-red conjugated; from Jackson Immunoresearch; West Grove, Pa.) at a 1:250 dilution in 5% normal goat serum and 0.5 μg/ml of DAPI (4′,6-Diamidino-2-phenylindole). After 3 washes in PBS the coverslips were mounted with ProLong Gold anti-fade reagent from Molecular Probes (Eugene, Oreg.).
10 μl of 5 mg/ml MTT (Thiazolyl blue; Sigma) solution was added to each well of a 96-well plate. After 2 hours of incubation at 37° C., the medium was removed and the MTT was solubilized by the addition of 100 μl of acidic isopropanol (0.1N HCL) to each well. The absorbance was determined spectophotometrically at 570 nm.

[2] = tested on: non-small cell lung cancer (NSCLC); details: cited from earlier work
[3] = tested on: non-small cell lung cancer (NSCLC)
Description: A significant clinical response was defined either as a partial response using RECIST criteria for patients with measurable disease, or for patients whose tumor burden could not be quantified using these criteria, an evaluable response was assessed by two physicians.

advanced NSCLC = assay: Randomized trial of carboplatin/paclitaxel with or without erlotinib in advanced NSCLC; format: in vivo, human
Description: Tumor specimens were analyzed from patients with advanced NSCLC treated on the randomized trial of carboplatin/paclitaxel with or without erlotinib.

[4] = multi-institutional phase II trial
[5] = single patients 1-9, one per line

## COc1cccc2c1C(=O)c1c(O)c3c(c(O)c1C2=O)C[C@@](O)(C(=O)CO)C[C@@H]3O[C@H]1C[C@H](N)[C@H](O)[C@H](C)O1 [doxorubicin]
[1]
  resistance of EGFR-mutant lung cancer cells to induced cell death signals: markedly increased resistance

## Fas-ligand
[1]
  resistance of EGFR-mutant lung cancer cells to induced cell death signals: markedly increased resistance

## COc1cc2ncnc(Nc3ccc(F)c(Cl)c3)c2cc1OCCCN1CCOCC1 [Gefitinib]
[2]; chemotherapy-refractory NSCLC
  patients with dramatic clinical responses: approximately 10%
[2]; generally believed consequence of EGFR inhibition in normal tissues
  side effects of treatment: diarrhea and dermatitis
[2]; [4]
  response rate, Japanese patients: 27.5%
  response rate, predominantly European-derived population: 10.4%
[3]; of a total of 275 patients treated
  patients identified as having significant clinical responses: 25 patients
[3]; [5]
  Overall Survival, from the beginning of gefitinib treatment to death: >14.0 mo and 12.9 mo and >21.4 mo and >7.8 mo and >4.3 mo and 17.9 mo and 18.8 mo
  Response: Major; Improved bilateral; also recorded: Partial; improved lung; also recorded: Minor; improved pleural; also recorded: Partial; improved liver; also recorded: Major; improved lung
[3]; the 9 responder patients of Table 1
  median survival from the start of drug treatment: > 18 months

## C#Cc1cccc(Nc2ncnc3cc(OCCOC)c(OCCOC)cc23)c1 [erlotinib]
Advanced NSCLC
  survival in the two treatment arms: equivalent survival

## N.N.[Cl][Pt][Cl] [cisplatin]
[1]
  resistance of EGFR-mutant lung cancer cells to induced cell death signals: markedly increased resistance

From US7964349B2, “Method to determine responsiveness of cancer to epidermal growth factor receptor targeting treatments” (The General Hospital Corporation, priority 2004, dated 2011)
